{"source": "patent US11896594B2", "about": "“Palatable antiparasitic formulations” (Zoetis Services LLC, priority 2018, dated 2024)", "system": "D. immitis", "assay": "Prevention of heartworm disease in dogs", "assay_type": "in vivo", "conditions": "in vivo, po", "note": "Several values for one entry are separate records, joined by “and”; a condition that tells them apart may be missing. Equal entries are not always repeated."}
{"smiles": "CO/N=C1\\C[C@]2(C[C@@H]3C[C@@H](C/C=C(\\C)C[C@@H](C)/C=C/C=C4\\CO[C@@H]5[C@H](O)C(C)=C[C@@H](C(=O)O3)[C@]45O)O2)O[C@H](/C(C)=C/C(C)C)[C@H]1C", "note": "[moxidectin]", "values": [{"measurement": "rate of efficacy against ML-resistant D. immitis isolate", "result": "98.8% and 99.5%"}]}
